ChEMBL document CHEMBL4428092, “Synthesis and activity evaluation of the cyclic dipeptides arylidene N-alkoxydiketopiperazines” (Bioorg Med Chem, 2016)

Columns and labels:
[1] = Growth inhibition of human K562-1 cells at 20 ug/ml after 24 hrs by sulforhodamine B assay relative to control; type: functional; conditions: read-out: GI
HCT-15 [2] = experiment: Growth inhibition of human HCT15 cells at 20 ug/ml after 24 hrs by sulforhodamine B assay relative to control; type: functional; conditions: HCT-15, 24 h, read-out: GI
HT-29 [3] = experiment: Growth inhibition of human HT-29 cells at 20 ug/ml after 24 hrs by sulforhodamine B assay relative to control; type: functional; conditions: HT-29, 24 h, read-out: GI
A549 [4] = experiment: Growth inhibition of human A549 cells at 20 ug/ml after 24 hrs by sulforhodamine B assay relative to control; type: functional; conditions: A549, 24 h, read-out: GI
[5] = Growth inhibition of human Bre04 cells at 20 ug/ml after 24 hrs by sulforhodamine B assay relative to control; type: functional; conditions: Bre04, 24 h, read-out: GI
[6] = Cytotoxicity against human K562-1 cells at 100 uM after 24 hrs by sulforhodamine B assay relative to control; type: functional
[7] = Cytotoxicity against human K562-1 cells at 50 uM after 24 hrs by sulforhodamine B assay relative to control; type: functional
[8] = Cytotoxicity against human K562-1 cells at 20 uM after 24 hrs by sulforhodamine B assay relative to control; type: functional
[9] = Cytotoxicity against human K562-1 cells at 10 uM after 24 hrs by sulforhodamine B assay relative to control; type: functional
[10] = Cytotoxicity against human K562-1 cells at 5 uM after 24 hrs by sulforhodamine B assay relative to control; type: functional
HCT-15 [11] = experiment: Cytotoxicity against human HCT15 cells at 100 uM after 24 hrs by sulforhodamine B assay relative to control; type: functional
HCT-15 [12] = experiment: Cytotoxicity against human HCT15 cells at 50 uM after 24 hrs by sulforhodamine B assay relative to control; type: functional
HCT-15 [13] = experiment: Cytotoxicity against human HCT15 cells at 20 uM after 24 hrs by sulforhodamine B assay relative to control; type: functional
HCT-15 [14] = experiment: Cytotoxicity against human HCT15 cells at 10 uM after 24 hrs by sulforhodamine B assay relative to control; type: functional
HCT-15 [15] = experiment: Cytotoxicity against human HCT15 cells at 5 uM after 24 hrs by sulforhodamine B assay relative to control; type: functional
HT-29 [16] = experiment: Cytotoxicity against human HT-29 cells at 100 uM after 24 hrs by sulforhodamine B assay relative to control; type: functional
HT-29 [17] = experiment: Cytotoxicity against human HT-29 cells at 50 uM after 24 hrs by sulforhodamine B assay relative to control; type: functional
HT-29 [18] = experiment: Cytotoxicity against human HT-29 cells at 20 uM after 24 hrs by sulforhodamine B assay relative to control; type: functional
HT-29 [19] = experiment: Cytotoxicity against human HT-29 cells at 10 uM after 24 hrs by sulforhodamine B assay relative to control; type: functional
A549 [20] = experiment: Cytotoxicity against human A549 cells at 100 uM after 24 hrs by sulforhodamine B assay relative to control; type: functional
A549 [21] = experiment: Cytotoxicity against human A549 cells at 50 uM after 24 hrs by sulforhodamine B assay relative to control; type: functional
A549 [22] = experiment: Cytotoxicity against human A549 cells at 20 uM after 24 hrs by sulforhodamine B assay relative to control; type: functional
A549 [23] = experiment: Cytotoxicity against human A549 cells at 10 uM after 24 hrs by sulforhodamine B assay relative to control; type: functional
A549 [24] = experiment: Cytotoxicity against human A549 cells at 5 uM after 24 hrs by sulforhodamine B assay relative to control; type: functional
[25] = Antiproliferative activity against human K562-1 cells after 24 hrs by sulforhodamine B assay relative to control; type: functional, cell-based
HCT-15 [26] = experiment: Antiproliferative activity against human HCT15 cells after 24 hrs by sulforhodamine B assay relative to control; type: functional, cell-based; conditions: HCT-15, 24 h
A549 [27] = experiment: Antiproliferative activity against human A549 cells after 24 hrs by sulforhodamine B assay relative to control; type: functional, cell-based; conditions: A549, 24 h
HCT-8 = experiment: Growth inhibition of human HCT8 cells at 20 ug/ml relative to control; type: functional; conditions: read-out: GI
HepG2 = experiment: Growth inhibition of human HepG2 cells at 20 ug/ml relative to control; type: functional; conditions: read-out: GI
MDA-MB-231 = experiment: Growth inhibition of human MDA-MB-231 cells at 20 ug/ml relative to control; type: functional; conditions: read-out: GI
[28] = Growth inhibition of human K562-1 cells at 20 ug/ml relative to control; type: functional; conditions: read-out: GI
HCT-15 [29] = experiment: Growth inhibition of human HCT15 cells at 20 ug/ml relative to control; type: functional; conditions: read-out: GI
HT-29 [30] = experiment: Growth inhibition of human HT-29 cells at 20 ug/ml relative to control; type: functional; conditions: read-out: GI
A549 [31] = experiment: Growth inhibition of human A549 cells at 20 ug/ml relative to control; type: functional; conditions: read-out: GI

Row | SMILES | inhibition of growth at 20 µg/mL [5] | Activity [6] | Activity [7] | Activity [8] | Activity [9] | Activity [10] | Activity (HCT-15 [11]) | Activity (HCT-15 [12]) | Activity (HCT-15 [13]) | Activity (HCT-15 [14]) | Activity (HCT-15 [15]) | Activity (HT-29 [16]) | Activity (HT-29 [17]) | inhibition of growth at 20 µg/mL (HCT-8) | inhibition of growth at 20 µg/mL (HepG2) | inhibition of growth at 20 µg/mL (MDA-MB-231) | inhibition of growth at 20 µg/mL [28] | inhibition of growth at 20 µg/mL (HCT-15 [29]) | inhibition of growth at 20 µg/mL (HT-29 [30]) | inhibition of growth at 20 µg/mL (A549 [31]) | other results
1 | COc1cc(/C=C2\C(=O)N3CCC[C@H]3C(=O)N2OCc2ccc(Cl)cc2)cc(OC)c1OC | 50.3% | 97.8% | 96.5% | 73.9% | 58.1% | 36.7% | 98.6% | 94.4% | 81.6% | 60.5% | 42.4% | 86.8% | 55.7% |  |  |  |  |  |  |  | inhibition of growth at 20 µg/mL [1]: 95.7%; inhibition of growth at 20 µg/mL (HCT-15 [2]): 92.6%; inhibition of growth at 20 µg/mL (HT-29 [3]): 53.2%; inhibition of growth at 20 µg/mL (A549 [4]): 76.6%; Activity (HT-29 [18]): 39.2%; Activity (HT-29 [19]): 24.2%; Activity (A549 [20]): 91.7%; Activity (A549 [21]): 81.8%; Activity (A549 [22]): 63.4%; Activity (A549 [23]): 48.1%; Activity (A549 [24]): 4.03%; IC50 [25]: 7.3 µM; IC50 (HCT-15 [26]): 8.6 µM; IC50 (A549 [27]): 11.4 µM
2 | O=C1[C@@H]2CCCN2C(=O)/C(=C\c2cccnc2)N1OC1CCCCC1 | 35.3% |  |  |  |  |  |  |  |  |  |  |  |  | 80.1% | 60.4% | 16.1% | 69.3% | 62.1% | 70.3% | 35.2% | 
3 | CCCCON1C(=O)[C@@H]2CCCN2C(=O)/C1=C\c1ccccc1 |  | 99.6% | 92.7% | 46.5% | 39.2% | 30.2% | 99.1% | 87.5% | 78.3% | 48.8% | 4.04% | 80.6% | 61.6% | 68.4% | 59.9% | 16.3% | 96.2% | 90.6% | 64.9% | 50.8% | Activity (HT-29 [18]): 39.8%; Activity (HT-29 [19]): 21.2%; Activity (A549 [20]): 91.1%; Activity (A549 [21]): 48.4%; Activity (A549 [22]): 16.2%; IC50 [25]: 27.3 µM; IC50 (HCT-15 [26]): 11.8 µM
4 | CCCCON1C(=O)[C@@H]2CCCN2C(=O)/C1=C\c1cc(OC)c(OC)c(OC)c1 |  |  |  |  |  |  |  |  |  |  |  |  |  | 60.6% | 64.3% | 45.6% | 64.4% | 61.6% | 61.6% | 43.4% | 
5 | CON1C(=O)[C@@H]2CCCN2C(=O)/C1=C\c1ccccc1 | 24.5% | 98.6% | 87.3% | 55.4% | 36.2% | 24.4% | 96.5% | 82.6% | 60.5% | 46.8% | 37.3% | 88.6% | 56.4% | 78.8% | 62.2% | 23.5% | 90.4% | 88.8% | 65.4% | 26.6% | Activity (HT-29 [18]): 34.9%; Activity (HT-29 [19]): 28.1%; Activity (A549 [20]): 50.5%; Activity (A549 [21]): 22.4%; IC50 [25]: 17.6 µM; IC50 (HCT-15 [26]): 14.1 µM
6 | COc1cc(/C=C2\C(=O)N3CCC[C@H]3C(=O)N2OCc2ccccc2)cc(OC)c1OC |  |  |  |  |  |  |  |  |  |  |  |  |  | 79.1% | 75% | 43.2% | 73.2% | 74.2% | 70.1% | 8.9% | 
7 | COc1cc(/C=C2\C(=O)N3CCC[C@H]3C(=O)N2OC2CCCCC2)cc(OC)c1OC |  | 96.4% | 83.6% | 61.3% | 50.7% | 30.2% | 89.7% | 69.3% | 47.6% | 39.2% | 40.4% | 88.5% | 56.6% | 75.2% | 76.1% | 42.5% |  | 67.9% | 60.5% | 26.4% | inhibition of growth at 20 µg/mL [1]: 80.1%; Activity (HT-29 [18]): 42.9%; Activity (HT-29 [19]): 48.8%; Activity (A549 [21]): 33.4%; Activity (A549 [22]): 20.5%; IC50 [25]: 9.8 µM; IC50 (HCT-15 [26]): 23.7 µM
8 | CCON1C(=O)[C@@H]2CCCN2C(=O)/C1=C\c1ccccc1 | 21.9% |  |  |  |  |  |  |  |  |  |  |  |  |  |  |  |  |  |  |  | inhibition of growth at 20 µg/mL [1]: 42.6%; inhibition of growth at 20 µg/mL (HT-29 [3]): 62.8%; inhibition of growth at 20 µg/mL (A549 [4]): 25.3%
9 | O=C1[C@@H]2CCCN2C(=O)/C(=C\c2ccccc2)N1OCc1ccccc1 | 25% |  |  |  |  |  |  |  |  |  |  |  |  | 66.8% | 69.2% | 32.6% | 65.6% | 69.7% | 76.2% | 41.3% | 
10 | COc1cc(/C=C2\C(=O)N3CCC[C@H]3C(=O)N2OCc2cccnc2)cc(OC)c1OC |  |  |  |  |  |  |  |  |  |  |  |  |  |  |  |  |  |  |  |  | inhibition of growth at 20 µg/mL (HCT-15 [2]): 78.7%; inhibition of growth at 20 µg/mL (HT-29 [3]): 30.7%; inhibition of growth at 20 µg/mL (A549 [4]): 27.1%
11 | O=C1[C@@H]2CCCN2C(=O)/C(=C\c2ccccc2)N1OC1CCCCC1 |  |  |  |  |  |  |  |  |  |  |  |  |  | 76.3% | 68.5% | 17.3% | 78.2% | 72.3% | 69.4% | 33.8% | 
